# Measurements from patent publication US20260174677A1, “METHODS OF TREATING INSULIN RESISTANCE AND ASSOCIATED DISORDERS” (The University of Melboune, priority 2022, published 2026).
# Assays:
# Assay type in all cases: in vivo, mouse
# ARC CSPG-ECM = assay: Intranasal PZ6005 in diet-induced obese mice: WFA immunostaining of CSPG-ECM within the ARC; conditions: 14 days; for ARC CSPG-ECM area, lower than the controls / ARC CSPG-ECM intensity, decrease: 12-week-HFHS-diet-fed obese mice
# Protocol: For detection of aggrecan, GFP, HABP, parvalbumin, mCherry, versican, tenascin-C, HAPLN1, neurocan, phosphacan, brevican, WFA and WFA-FITC sections were incubated at room temperature for 1 h in blocking buffer (0.3% Triton X-100, 5% normal goat serum, Gibco, ThermoFisher, MA, 0.02% sodium azide) and then overnight at 4° C. in 1% blocking buffer containing either rabbit anti-aggrecan (1:1000, AB1031, Millipore, MA), chicken anti-GFP (1:2000; ab13970, Abcam, Cambridge, UK), Biotinylated HABP (1:100, 385911, Burlington, MA), sheep anti-parvalbumin (1:1000), in house), rabbit anti-dsRed (1:2000, 600-401-379, Rockland, PA), rabbit anti-versican (1:1000, AB1033, Millipore, MA), tenascin-C (1:500, M1-B4, Developmental Studies Hybridoma Bank, Iowa), HAPLN1 (1:500, 9/30/8-A-4, Developmental Studies Hybridoma Bank, Iowa), neurocan (1:300, 1F6-S, Developmental Studies Hybridoma Bank, Iowa), phophacan (1:300, 3F8, Developmental Studies Hybridoma Bank, Iowa), brevican (1:500, 610895, BD Transduction Laboratories), biotinylated WFA (1:2000, L1516; Sigma-Aldrich, MO), WFA-FITC (1:2000, FL-1351-2, Vector Laboratories, CA), rabbit anti PGP9.5 (1:1000, 14730-1-AP, Proteintech, IL), guinea pig anti AgRP (1:500, AS506, Antibodies Australia, Melbourne, AUS). After washing with PBS-T (0.3% Triton X-100 in PBS, +0.02% sodium azide), sections were incubated with goat anti-chicken Alexa Fluor 488 (ab150169, Abcam, Cambridge, UK), goat anti-rabbit Alexa Fluor-488, 595, 647 (ab150077, ab150080, ab150083, Abcam, Cambridge, UK), donkey anti-sheep Alexa Fluor 594 (ab150180, Abcam, Cambridge, UK), Alexa Fluor 594, 647 Streptavidin (405240, BioLegend, CA)—conjugated secondary antibodies in 5% blocking buffer for 2 h at room temperature. […] Brightness and contrast in the colour merged images have been adjusted to aid in the analysis of co-incidence.
# All image quantification was performed in Image J (NIH) software (NIH, MA). Raw images underwent background subtraction using a rolling ball algorithm to minimize background and any potential variance in tissue autofluorescence. To quantify area and intensity of the CSPG-ECM within each brain region (ARC, VMH or RSG cortex) images were thresholded and binarized to create a region of interest (ROI) mask of only the CSPG-ECM. For each brain area, CSPG-ECM ROI area (μm^2) and intensity (sum of all pixel intensities within the ROI) was calculated. This process was automated to minimise bias and to account for differences in brain nuclei size across multiple images. Brain nuclei were defined in accordance with the Paxinos and Franklin mouse brain atlas (http://labs.gaidi.ca/mouse-brain-atlas/). The area and intensity of CSPG-ECM within each region was normalised to the respective control.
# Conscious mice were restrained by scruffing and inverted parallel to the floor with the chin at ˜180-degree angle with the neck. Using a 10 μL tip, a pipettor was loaded with 5 μl of vehicle (ddH2O) or fluorosamine (1 mg/animal in 20 μl or 5 mg/animal in 20 μl). The tip of the filled pipettor was placed near the left nostril at a 45-degree angle, and the drug was ejected to form a small 5 μl droplet at tip for the mouse to inhale. Immediately after the mouse inhaled the first droplet the remaining solution was ejected to form another small droplet for the mouse to inhale through the same nostril. The mouse was held in this position for 15 seconds before the procedure was repeated in the right nostril.
# [1] = test system: insulin induced p-AKT signalling in the ARC; assay: I.C.V. fluorosamine in obese mice: insulin-induced p-AKT in the ARC; conditions: following 10 days of treatment
# Protocol: (§1) Under isoflurane anaesthetic 12-week HFHS fed C57BL/6J or AgRP-Cas9 mice were implanted stereotaxically with guide cannulas into the right lateral ventricle (0.2 mm posterior, 1.0 mm lateral from bregma). Guide cannula was positioned 1.3 mm above the injection site (1 mm ventral to the surface of the skull). AgRP-Cas9 mice were treated with either AAV-gScrambled or AAV-gIR and underwent guide cannula placement 7 days post AAV administration. Mice were administered I.C.V. vehicle (ddH2O), fluorosamine (100 μg/animal/day or 250 μgl/animal/day) in a volume of 2 μl/animal and all compounds were delivered approximately 1 h before lights off […].
# [2] = I.C.V. fluorosamine in obese mice: metabolic assessment; conditions: I.C.V. daily for 10 days
# Protocol: Metabolic measurements were undertaken in the Melbourne Mouse Metabolic Phenotyping Platform (The University of Melbourne, Australia). Glucose tolerance tests were performed on 6 h fasted conscious mice respectively by injecting D-glucose (2 mg/g of lean body mass and 1 mg/g lean mass for db/db and HFHS+STZ mice) into the peritoneal cavity and measuring glucose in tail blood immediately before and at 15, 30, 45, 60, 90 and 120 min after injection using an Accu-Check glucometer (Roche, Germany). The areas under glucose excursion curves were determined and expressed as mmol/1×min. Fasted (12 h fast) plasma insulin or glucose levels were determined using a Rat/Mouse Insulin ELISA (EZRMI-13K, Merck Millipore, CA) or an Accu-Check glucometer respectively. The HOMA-IR was calculated using the equation [(glucose×insulin)/405]. Adiposity was measured using TD-NMR minispec (Bruker Optics Inc., Billerica, MA).
# Mice were acclimated for 24 h and then monitored for 48 h in an environmentally controlled Promethion Metabolic Screening System (Sable Systems International, NV) fitted with indirect open circuit calorimetry, food consumption and activity monitors to measure activity, caloric intake and energy expenditure. Respiratory quotients were calculated as the ratio of CO2 production over O2 consumption respiratory exchange ratio and energy expenditure was calculated using the Weir equation (Kcal h-1=60×(0.003941×VO2+0.001106×VCO2). To account for difference in body mass/composition energy expenditure was analysed and adjusted using ANCOVA using scripts available at the National Mouse Metabolic Phenotyping Centers (MMPC, Nashville, TN, USA) Energy Expenditure Analysis Page (https://www.mmpc.org/shared/regression.aspx).
# as §1
smiles,measurement,setting,value
"CC(=O)NC1C(OC(C)=O)OC(COC(C)=O)[C@@H](F)C1OC(C)=O (some centres unmarked) [fluorosamine, per-O-acetylated-4-F-N-acetylglucosamine]","ARC CSPG-ECM area, lower than the controls",ARC CSPG-ECM; I.N. 1 mg/animal/day,13.54±1.03%
same,"ARC CSPG-ECM intensity, decrease",ARC CSPG-ECM; I.N. 1 mg/animal/day,15.94±7.17%
same,"ARC CSPG-ECM intensity, decrease",ARC CSPG-ECM; I.N. 5 mg/animal/day (highest dose),30.16±1.52%
same,"ARC CSPG-ECM area, lower than the controls",ARC CSPG-ECM; I.N. 5 mg/animal/day,13.59±4.09%
same,ARC neurofibrosis,"ARC CSPG-ECM; intranasal, diet-induced obese mice, dose not given",successfully attenuated ARC neurofibrosis
same,insulin induced p-AKT signalling in the ARC,[1],enhanced insulin induced p-AKT signalling in the ARC
same,adiposity,[2],reduced adiposity
same,body weight,[2],promoted weight loss
same,energy expenditure,[2],enhanced energy expenditure independently of ambulatory activity
same,food intake,[2],supressed food intake through enhanced satiety
same,glucose tolerance,[2],improved glucose tolerance
